Source: patent US20050043262A1, “Novel specific inhibitor of the cyclin kinase inhibitor p21Waf1/Cip1 and methods of using the inhibitor” (priority 2000, published 2005)

What was measured:
caspase-3 [1] = test: Caspase-3 activity (CaspACE colorimetric assay) in MCF-7 cells; assay type: cell-based, human; conditions: MCF-7 cells (lack caspase-3)
Description: Caspase-3 Activity: The CaspACE Assay System was used to measure the activity of caspase-3. After incubation under appropriate conditions, the cells were lysed in CaspACE lysis buffer, and protein concentration was determined by dye reagent protein assay (Bio-Rad, Hercules, Calif.). […] The lysates with equal protein amounts were incubated with DEVD-p-nitroaniline substrate for 4 hours at 37° C. The reaction products were detected at 405 nm using a PowerWave X automated plate reader (Bio-Tek Instruments).
As another confirmatory test for antisense p21 ODN-mediated apoptosis, caspase-3 activation was assessed. Members of the caspase family of proteases are essential components of an evolutionarily conserved cell death pathway in multicellular eukaryotes and play key roles in inflammation and apoptosis in mammalian cells. Caspase-3 has substrate specificity for the amino acid sequence DEVD (Asp-Glu-Val-Asp) and is inhibited by the tetrapeptide inhibitor Ac-DEVD-CHO; its catalytic activity was assessed colorimetrically using the labeled Ac-DEVD-pNA substrate. […] T47D cells were grown to confluence, serum starved for 24 hours, and lipofected with antisense p21 or control ODN at the concentrations indicated. Caspase-3 activity was assessed as described in “Capase-3 Activity” using a colorimetric method. […]

cyclinD/cdk4 = test: Cyclin D1 immunoprecipitation / cdk4 immunoblot in A431 cells; assay type: cell-based, human; conditions: PDGF-BB 30 ng/ml
From the text: Cyclin/cdk interactions occur after growth factor stimulation and serve to integrate such responses with the CKIs and transmit them to the Rb/E2F systems, which leads to mitogenic signal transmission. The cyclin D1/cdk 4 interaction occurs early after growth factor stimulation (reviewed in (Arellano and Moreno, 1997 Int. J. Biochem. Cell Biol., 29, p. 559-573)), while the cyclinE/cdk2 interaction occurs late in G1 and is thought to have a role in triggering the actual onset of DNA replication after the cells have passed the restriction point (reviewed in (Sherr and Roberts, 1995: Genes Dev., 9, p. 1149-1163)). A431 cells were transfected with p21^Waf1/Cip1 antisense (SEQ. ID NO.:1) or sense (SEQ. ID NO.:2) oligodeoxynucleotide, allowed to grow overnight in serum-free media, and then stimulated for various times with PDGF-BB. The cells were subsequently immunoprecipitated with either cyclinD1 or cyclinE and immunoblotted with cdk4 or cdk2, respectively. A lysate sample, showing the mobility of the immunoprecipitated cdks, confirmed the identity of the cdks. A431 cells were transfected with antisense (SEQ. ID NO.:1) or sense p21^Waf1/Cip1 (SEQ. ID NO.:2) oligonucleotides. […]

caspase-3 [2] = test: Caspase-3 activation (cleavage product) by Western blot in VSM cells; assay type: cell-based, rat
Description: FIGS. 19A and B depict how Caspase-3 is activated by antisense oligonucleotide to p21 but not early after radiation or Adriamycin, as described in Example III, infra. Confluent VSM cells were transfected with oligonucleotide in the concentration indicated, left in serum-containing media overnight, and exposed to (A) ionizing radiation (12 Gy) or (B) Adriamycin where indicated. 4 hours later, activation of caspase-3 was assessed by Western blotting. The arrowhead indicates the cleavage product of caspase-3 signifying its processing as an early step in apoptosis. Wortmannin (wort) is a positive control for apoptosis. […] The experiment shown is representative of two separate experiments.
Western blots: Cells were grown to confluence in 6 cm culture dishes and serum deprived. After transfection and or treatment with appropriate agonist, conditioned medium was removed and saved and the cells were washed with phosphate-buffered saline and lysed in lysis buffer. Both supernatant and cell lysate were normalized to the lysate protein concentrations and Western blotted as described (Weiss R H, et al. Am J Physiol 274:C1521-C1529, 1998).
In order to determine whether the potentiation of ionizing radiation and Adriamycin induced DNA synthesis inhibition by p21 antisense oligonucleotides is accompanied by apoptosis, caspase-3 activation in response to ionizing radiation was examined. Caspase-3 is an effector caspase whose activation (leading to apoptosis) results in a 20 kD cleavage product which can be assessed by Western blotting (McCarthy N J, Evan G I. Curr Top Dev Biol 36:259-278, 1998). This process is an early event in a cascade of reactions which ultimately leads to apoptosis, as is evident by the fact that inactivation of caspase-3 dramatically reduces apoptosis in several cell lines (Woo M, et al. Genes Dev 12:806-819, 1998).
VSM cells were transfected with antisense or control oligonucleotides overnight and then stimulated with ionizing radiation.

A431 cells = test: [3H]thymidine incorporation (DNA synthesis) in A431 cells; assay type: cell-based, human
Description: FIG. 9A-D are bar graphs showing Antisense p21^Waf1/Cip1 oligodeoxynucleotide has no significant effect DNA synthesis in PMA-inhibitable A431 cells, as described in Example II, infra. […] A431 cells were placed in serum-free medium overnight and then stimulated with (A) PDGF-BB (30 ng/ml), (B) 10% serum-containing medium, or (C) PDGF-BB or PMA (100 ng/ml) for another 8 hours before [^3H]-thymidine was added for overnight incubation. (D) A10 VSM cells were transfected with sense and antisense p21^Waf1/Cip1 oligonucleotides as above and treated similarly to (B). DNA synthesis was assessed by [^3H]-thymidine incorporation and is expressed as mean ±s.e.m. of three wells per data point. The absolute counts differ between experiments due to different confluency of the cells. The experiments shown are representative of two separate experiments.
Cell culture and DNA synthesis: Cultures of A10 and A431 cells were obtained from American Type Culture Collection (Rockville Md), were maintained as described (Weiss et al. 1998, Am. J. Physiol. 274, C1521-C1529), and were used between passages 15 and 24 or 25 and 35, respectively. The cells were growth-arrested by placing them in serum-free quiescence medium, exposed to growth factors as indicated, and [^3H]thymidine incorporation assessed as previously described (Weiss and Nuccitelli, 1992, J. Biol. Chem. 267, 5608-5613).
This A431 data is in contrast with that obtained in a variety of VSM cell lines, where cell growth was inhibited by similar oligodeoxynucleotide concentrations in cell stimulated with both PDGF-BB and serum (FIG. 9d).

Met-1 cells = conditions: Weiss et al., Cancer Lett. 2003; cited from earlier work

Row | Substance | caspase-3 cleavage (activity) (caspase-3 [1]) | cyclinD/cdk4 association (cyclinD/cdk4) | caspase-3 activation (caspase-3 [2]; Adriamycin experiment (FIG. 19b)) | caspase-3 activation (caspase-3 [2]; alone or after ionizing radiation 12 Gy, 4 hours) | DNA synthesis upon stimulation with PDGF or serum (A431 cells; 0 to 400 nM oligodeoxynucleotide) | difference in DNA synthesis between sense and antisense (A431 cells; up to 800 nM) | growth of tumors in a mouse model of breast cancer (Met-1 cells)
1 | 5′-ATC-CCC-AGC-CGG-TTC-TGA-CAT-3′ (antisense ATCCCCAGCCGGTTCTGACAT; listed as DNA, chemistry not fully specified) [antisense p21 ODN] | did not show significant caspase-3 cleavage products |  |  |  |  |  | 
2 | 5′-GACATCACCAGGATCGGACAT-3′ |  | no change | caspase-3 activation was observed | impressive increase | no significant change | no difference | attenuates growth of tumors
